Values quoted from earlier work in patent US20120046351A1, “Medicinal cannabis added in food” (priority 2010, published 2012).

Experiments:
[1] = 180 degrees C.
[2] = system: people who use cannabis; details: compared with the no cannabinoid and the TCH+CBD groups

CCCCCc1cc(O)c2c(c1)OC(C)(C)[C@@H]1CCC(C)=C[C@@H]21 [Δ^9-THC, Tetrahydrocannabinol]
degradation of Δ^9-THC into cannabinol and dihydrocannabinol [1]: A significant percentage of Δ^9-THC being degraded
positive schizophrenia-like symptoms [2]: higher levels of positive schizophrenia-like symptoms
